According to US20170136140A1, “Antimicrobial Compositions Utilizing Silver and Oxygen, Process for Making, and Method of Using the Same” (Avent, Inc., priority 2014, published 2017):
Like-named read-outs stand apart in the source and are kept apart here.

Columns and labels:
human fibroblasts = conditions: cited from earlier work
[1] = tested on: Methicillin-resistant Staphylococcus aureus—MRSA (Clinical isolate); assay: Antimicrobial challenge test (time-kill) in 95% TSB, concentrated media and silver; type: cell-based; conditions: throughout the duration of the testing (3 and 6 hours), 100% oxygen headspace, no silver
Method: In the first sample, 10 ml of 95% tryptic soy broth (TSB) was inoculated with approximately 10^5 CFU of Methicillin-resistant Staphylococcus aureus—MRSA (Clinical isolate). […] Each test sample was then incubated at 37° C.; the level of surviving organisms was tested after 3 hours and 6 hours for each.
The challenge organism (MRSA Clinical isolate) was prepared by culturing in Soybean-Casein digest broth (TSB) at 35° C. for 18 to 24 hrs to an approximate concentration of 1.8×10^9 CFU per ml. • 2. For the challenge tests: 0.01 ml of the stock culture was added into a 50 ml screw top test tube and then diluted to 10 ml with 95% TSB broth to a final concentration of 1.8×10^6 CFU/ml. • 3. […] Silver Challenge test: To a test tube prepared as described from step 2; 100 μl of 30% wt/wt AgNO3 was added and vortexed to mix for a final concentration of 0.3% AgNO3. • b. Silver+O2 challenge test: To a test tube prepared as described from step 2; 100 μl of 30% wt/wt AgNO3 solution was added and vortexed to mix for a final concentration of 0.3% AgNO3. […] The samples were then incubated at 37° C. for both 3 and 6 hours. • d. At the 3 and 6 hour time point the samples were plated at different dilutions (10^−1, 10^−3, and 10^−5) to enumerate the surviving colonies. • i. The 3 hour samples was re-purged with 02 gas and returned to the incubating oven for an additional 3 hours. • ii. […]

[2] = tested on: Pseudomonas aeruginosa (ATCC 9027); type: cell-based; conditions: 37° C., 0.03 ppm silver (from silver nitrate), 5% TSB, based on time zero plate count
Method: Each test sample was then incubated at 37° C.; the level of surviving organisms was tested after 3 hours and 6 hours for each.
The challenge organism (Pseudomonas aeruginosa ATCC 9027) was prepared by culturing in Soybean-Casein digest broth (TSB) at 35° C. for 18 to 24 hrs to an approximate concentration of 1.8×10^8 CFU per ml. • 2. For the challenge tests: 0.01 ml of the stock culture was added into a 50 ml screw top test tube and then diluted to 10 ml with 5% TSB broth to a final concentration of 1.8×10^5 CFU/ml. • 3. […] Silver Challenge test: To a test tube prepared as described from step 2; 100 μl of 3 ppm AgNO3 was added and vortexed to mix for a final concentration of 0.03 ppm AgNO3. • b. Silver+O2 challenge test: To a test tube prepared as described from step 2; 100 μl of 3 ppm Ag+ (from AgNO3) solution was added and vortexed to mix for a final concentration of 0.03 ppm AgNO3. […] The samples were then incubated at 37° C. for both 3 and 6 hours. • d. At the 3 and 6 hour time point the samples were plated at different dilutions (10^−1, 10^−3, and 10^−5) to enumerate the surviving colonies. • i. The 3 hour samples were re-purged with 02 gas and returned to the incubating oven for an additional 3 hours. • ii. The media used for plating was Trypticase soy agar (TSA). • e. The plates were incubated for 2 to 3 days before counting. • f. […]

For [Ag+] [Ionic silver], the “concentration cytotoxic to human fibroblasts” value (human fibroblasts) is given as 1 parts per million.
With O=O [Sample 4, oxygen gas] the “change in the amount of colony forming units” value [1] was “increase”.
For silver nitrate [Sample 1], the “log reduction in the number of CFU” value ([2]; after 3 hours) was 2 log and the “log reduction in the number of CFU” value ([2]; after 6 hours) was 3 log.
